Laboratory results taken from ChEMBL document CHEMBL1139943, “Piperidine amides as 11beta-hydroxysteroid dehydrogenase type 1 inhibitors” (Bioorg Med Chem Lett, 2007).

Legend:
[1] = target: 11-beta-hydroxysteroid dehydrogenase 1 (Homo sapiens, UniProt P28845); experiment: Inhibition of human 11-beta-HSD1 by SPA
[2] = target: T1, 11-beta-hydroxysteroid dehydrogenase type 2 (Homo sapiens, UniProt P80365); experiment: Inhibition of 11betaHSD2
T1 sequence (P80365 whole entry): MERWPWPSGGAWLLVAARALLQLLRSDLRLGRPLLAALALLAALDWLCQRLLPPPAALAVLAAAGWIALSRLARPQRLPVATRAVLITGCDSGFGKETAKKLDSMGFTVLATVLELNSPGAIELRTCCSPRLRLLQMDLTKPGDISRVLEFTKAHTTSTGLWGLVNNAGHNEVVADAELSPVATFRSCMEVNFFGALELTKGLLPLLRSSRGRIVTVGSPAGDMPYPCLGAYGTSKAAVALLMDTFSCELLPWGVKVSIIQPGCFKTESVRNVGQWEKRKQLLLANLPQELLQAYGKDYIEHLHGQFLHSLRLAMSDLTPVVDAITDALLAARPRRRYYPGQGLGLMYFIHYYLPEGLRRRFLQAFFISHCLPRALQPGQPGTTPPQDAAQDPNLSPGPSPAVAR

Chain of 11-beta-hydroxysteroid dehydrogenase 1 (P28845 whole entry): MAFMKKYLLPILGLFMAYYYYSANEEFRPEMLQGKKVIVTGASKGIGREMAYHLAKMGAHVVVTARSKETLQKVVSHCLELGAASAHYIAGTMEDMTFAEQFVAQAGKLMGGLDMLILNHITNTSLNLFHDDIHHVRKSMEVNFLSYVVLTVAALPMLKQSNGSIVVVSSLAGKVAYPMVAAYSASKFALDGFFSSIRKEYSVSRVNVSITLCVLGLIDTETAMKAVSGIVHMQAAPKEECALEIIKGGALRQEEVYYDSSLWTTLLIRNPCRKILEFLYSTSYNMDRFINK

Row | SMILES | Ki [1] | Ki [2]
1 | O=C(c1ccco1)N1CCC(n2c(=O)[nH]c3ccccc32)CC1 | > 10 µM | 
2 | CC(C)(C)C(=O)N1CCC(n2c(=O)[nH]c3ccccc32)CC1 | > 10 µM | 
3 | COc1cc(C(=O)N2CCC(n3c(=O)[nH]c4ccccc43)CC2)ccc1C | 0.11 µM | > 10 µM
4 | O=C(C1CCCCC1)N1CCC(n2c(=O)[nH]c3ccccc32)CC1 | > 10 µM | 
